The test system of assay [1] is Raw264.7 cells. The assay is described as follows: Drug screen and titration: siRNACy3-LN uptake and punctate distribution (Cellomics ArrayScan). Format: cell-based, mouse. The following applies: for Normalized Punctate Distribution / Normalized siRNA Uptake: 10 μg/mL siRNACy3 in DLinDMA LN, ~10 μM drug, 24 h; for Normalized Punctate Distribution: normalized to absence of drug; for Normalized siRNA Uptake: total Cy3 intensity normalized to absence of drug; for punctate / cytosolic distribution of siRNACy3 in titration study: drug 0-30 μM, 10 μg/mL siRNACy3-LN; for increase in siRNACy3 accumulation: drug at 30 μM, 10 μg/mL siRNACy3 in DLinDMA LNs, normalized to no drug. As for the experimental part:
(§1) Cells were fixed with 3% paraformaldehyde in PBS in the presence of Hoescht for 15 minutes. Cells were rinsed and stored in PBS supplemented with calcium chloride and magnesium sulfate. Plates were scanned and analyzed with the Cellomics ArrayScan VTI.
as §1

The subject of the next assay is HeLa cells. In words: LNP uptake in HeLa cells (SPDiO fluorescence, Cellomics / confocal). It is filed as cell-based, human. Particulars: for LNP uptake with cardiac glycosides: 0.05, 0.15 and 1.5 μM, 24 h. As for the experimental part: All cell lines were seeded at 5000 to 20,000 cells/well of 96-well ViewPlate (PerkinElmer, Shelton, Conn., USA) in 100 μl of medium and were allowed to grow overnight. Fresh medium containing 5 or 10 μg/ml of siRNA encapsulated in LNP was added the next day. Small molecules were either added manually or pinned from 1000-fold stocks in DMSO using a pinning robot equipped with 0.4 mm pins (BioRobotics, Cambridge, UK). Cells were incubated for 24 h. Cells were then washed once in PBSCM (1×PBS containing […] CaCl2), fixed in 3% paraformaldehyde containing Hoescht's stain for 15 min, washed once in PBSCM and stored in 100 μl of PBSCM.
Plates were imaged using a Cellomics Arrayscan VTI HCS Reader (Thermo Scientific, Pittsburgh, Pa., USA). Images were acquired using a 20× PlanFluor objective and a XF93 filter set. Object identification and image analysis were performed using the Cellomics Compartmental Analysis algorithm. Cellular SPDiO and siRNA-Cy3 fluorescence intensities were measured for a minimum of 400 cells and the average pixel intensity was examined. For confocal microscopy, cells grown on glass coverslips were washed once in 1×PBS, fixed in 3% paraformaldehyde containing Hoechst's stain for 15 min, washed again and mounted on slides. Images were captured on an Olympus FV1000 (Olympus, Center Valley, Pa., USA) laser scanning microscope and cellular SPDiO fluorescence intensity was analyzed using ImageJ (NIH, http://rsb.info.nih.gov/ij/).

A further assay has as its system Na+/K+-ATPase. Particulars: Paula et al., 2005; cited from earlier work.
Assay [2] has as its system Raw264.7 cells. The assay is described as follows: Chloroquine / CQ-lipid LN formulations: LN uptake (SPDiO) and siRNA distribution (Cellomics, confocal). Format: cell-based, mouse. Here is the method:
All lipid stocks (DSPC, PEG-s-DMG, Cholesterol, SP-DiOC18, chloroquine lipid and DLinDMA) were dissolved and maintained in 100% ethanol. Lipids were mixed together at a molar % ratio of 40:10:39.8:10:0.2 DLinDMA:PEG-s-DMG:cholesterol:DSPC:SP-DiO18 or 40:10:35.8:9:0.2 with 5% CQ-lipid or 35:10:39.8:0.2 with 5% CQ-lipid. Lipid mixture was added drop-wise to the formulation buffer (50 mM citrate, pH 4.0) to form multi lamellar vesicles (MLV). Large unilamellar vesicles (LUVs) were formed upon extrusion of MLVs through two stacked 80 nm Nuclepore polycarbonate filters using an extruder from Northern Lipids (Vancouver, BC, Canada) at ˜300 psi. In order to encapsulate siRNA, siRNA was added drop-wise to preformed vesicles and incubated at 35° C. for 30 minutes with constant mixing. Removal of ethanol and neutralization of formulation buffer were performed by dialysis in PBS for 16 hours. Distribution of size was determined by dynamic light scattering using a NICOMP 370 particle sizer (Nicomp Particle sizing Inc., Santa Barbara, Calif.). siRNA encapsulation efficiency was determined by removal of free siRNA using VivaPureD MiniH columns (Sartorius Stedim Biotech) from samples collected before and after dialysis. The encapsuted siRNA from eluants were then extracted and quantified at 260 nm. siRNA to lipid ratio was determined by measurement of cholesterol content in vesicles by using the Cholesterol E enzymatic assay from Wako Chemicals USA (Richmond, Va.).
Raw264.7 cells grown on glass coverslips were treated with 10 μg/mL Cy5-siRNA-LN/SPDiO or siRNACy3-LN/SPDiO constituted of +/−5% CQ-lipid in the presence of 35 or 40% DLinDMA. The overall uptake of LNs was monitored with SPDiO and the distribution of siRNA was monitored using either Cy5- or Cy3-labelled siRNA. Cells were fixed with 3% paraformaldehyde in PBS in the presence of Hoescht for nuclear staining for 15 minutes. Glass coverslips were mounted onto slides and analyzed by confocal microscopy (Olympus FV1000). Fluorochromes were excited at 488 nm (DiO), 594 nm (Alexa-594), 550 nm (Cy3) and at 633 nm (Cy5) and images were collected sequentially with 60× oil immersion objective lens.
Raw264.7 cells were treated with LNs consisting of 40% DLinDMA in the absence or presence of 10 or 30 μM chloroquine or formulation consisting of 35% DLinDMA with 5% CQ-lipid (˜14.7 μM chloroquine). Total lipid uptake was estimated by cellular SPDiO fluorescence. When cells were treated for 16 hours, the uptake of SPDiO was dependent on the concentration of chloroquine as well as concentration of LNs (FIG. 4A). When Raw264.7 cells were treated only with DLinDMA LNs, the intensity of SPDiO increased in respect to concentration. […] The Cy5-siRNA distribution at 16 hours was relatively more “punctate” than that at 24 hours (FIGS. 4B and C).

Assay [3] deals with GAPDH protein expression in LNCaP cells. The assay is described as follows: GAPDH siRNA-LN knockdown in LNCaP cells. Format: cell-based, human. Here is the method: (§2) FIG. 5: Raw264.7 cells were treated for 24 hours with siRNACy3 encapsulated in DLinDMA LNs in the presence or absence of 5% CQ-lipid. A lipid label, SPDiO, was incorporated into the LN to monitor uptake. LN uptake was assessed by (A) SPDiO fluorescence and distribution of siRNA was assessed by (B) Cy3 fluorescence using the Cellomics ArrayScan VTI. (C) Raw264.7 cells were incubated with the same LN formulations as in (B) for 24 hours at 10 μg/mL siRNACy3. siRNACy3 distribution was examined by confocal microscopy. (D) GAPDH siRNA was formulated into LN particles comprising of 40% DLinDMA with 0% CQ-lipid or 40% DLinDMA with 5% CQ-lipid. Raw264.7 cells were treated with 5, 10 and 20 μg/mL of siRNA for 48 and 72 hours. GAPDH protein expression was assessed by western blotting against anti-GAPDH and anti-actin. (E) LNCaP cells were treated accordingly as in (D).
(§3) Perhaps most importantly, we wanted to determine whether the enhanced cytosolic distribution of siRNACy3 observed with the CQ-lipid correlated to enhanced gene knockdown. Glyceraldehyde 3-phosphate dehydrogenase (GAPDH) is an ubiquitously expressed cytosolic protein and therefore knockdown efficiency of encapsulated siRNA can be tested in different cell lines (Barber et al., 2005). Raw264.7 cells were treated with LN of varying concentration of GAPDH siRNA for 24, 48 and 72 hours. Total protein was isolated and analyzed for GAPDH levels by immunoblotting. […] The function of GAPDH siRNA was specific since actin expression was unaltered (FIG. 5D). To confirm the function of the CQ-lipid in the LN-siRNA-mediated gene knockdown, GAPDH silencing was also assessed in LNCaP cells (FIG. 5E).

Assay [4] concerns GAPDH protein expression in Raw264.7 cells. The assay is described as follows: GAPDH siRNA-LN knockdown by western blotting in Raw264.7 cells. Format: cell-based, mouse. As for the experimental part:
as §2, §3

Where [5] appears, read: 30 μM free chloroquine, or 35% DLinDMA LNs with 5% CQ-lipid, 16 hours.

Counter-ions that a name gives are not always drawn.

On to `C[N+]1(C)CCC(=C(c2ccccc2)c2ccccc2)CC1` [Diphemanil methylsulfate], for which, in the assay on Raw264.7 cells [1], the “Normalized Punctate Distribution” value came out at 0.34, the “Normalized siRNA Uptake” value is given as 0.70 and the “punctate / cytosolic distribution of siRNACy3 in titration study” value (“punctate / cytosolic distribution” below) is listed as “only showed enhanced cytosolic distribution of siRNACy3 at 30 μM”.

For the molecule `CC(COc1ccccc1)NC(C)C(O)c1ccc(O)cc1` (stereo not shown) [Isoxsuprine HCl, isoxsuprine hydrochloride], in the assay on Raw264.7 cells [1], the “Normalized Punctate Distribution” value came to 0.33 and the “Normalized siRNA Uptake” value turned out to be 0.51.

Turning to `C[C@@H]1O[C@@H](O[C@@H]2C=C3CCC4C(CC[C@]5(C)[C@@H](c6ccc(=O)oc6)CC[C@]45O)[C@@]3(C)CC2)[C@H](O)[C@H](O)[C@H]1O` (stereo partly shown) [Proscillaridin A], in the assay on HeLa cells, the “LNP uptake with cardiac glycosides” value is recorded as “required the least amount to cause an increased LNP uptake”. Also, the “relative binding affinity among the 9 cardiac glycosides” value in the assay with Na+/K+-ATPase is given as “strongest binder”.

`CC(=O)OCC(=O)[C@@]1(O)CC[C@H]2[C@@H]3CCC4=CC(=O)C=C[C@]4(C)[C@@]3(F)[C@@H](O)C[C@@]21C` [Isoflupredone acetate]: in the assay on Raw264.7 cells [1], the “Normalized Punctate Distribution” value came out at 0.07 and the “Normalized siRNA Uptake” value is 0.50.

`c1ccc2c(CC3=NCCN3)cccc2c1` [Naphazoline HCl, naphazoline hydrochloride]: in the assay on Raw264.7 cells [1], the “Normalized Punctate Distribution” value is listed as 1.49 and the “Normalized siRNA Uptake” value turned out to be 1.32.

As for `CC(=O)c1ccc(S(=O)(=O)NC(=O)NC2CCCCC2)cc1` [Acetohexamide], in the assay with Raw264.7 cells [1], the “Normalized Punctate Distribution” value is 1.48 and the “Normalized siRNA Uptake” value is 1.32.

Regarding `CCN(CC)CCCC(C)Nc1ccnc2cc(Cl)ccc12` (stereo not shown) [Chloroquine], the “siRNA showing punctate distribution” value in the assay with Raw264.7 cells [2] (10 μM chloroquine, 24 hours (without chloroquine maximum 25-30%)) is given as around 10%. In the assay with Raw264.7 cells [2] (10 μM free chloroquine, 40% DLinDMA LNs, 16 hours), the “uptake of LNs (SPDiO fluorescence)” value is listed as “no significant difference”. Moreover, in the assay with Raw264.7 cells [2] (10 μM free chloroquine, 16 hours), the Cy5-siRNA punctate levels entry is “largely indifferent”. Besides, in the assay on Raw264.7 cells [2] (setting [5]), the Cy5-siRNA punctate levels result is on record as “significant reduction”. Also, in the assay on Raw264.7 cells [1], the “Normalized Punctate Distribution” value came out at 0.10, the “Normalized siRNA Uptake” value was 0.34 and the “punctate / cytosolic distribution” value was “significant loss of punctate distribution of siRNACy3 at 10 μM”.

For `Cn1c(=O)c2c(ncn2CC(O)CO)n(C)c1=O` (stereo not shown) [Diprophylline], in the assay on Raw264.7 cells [1], the “Normalized Punctate Distribution” value is 1.55, the “Normalized siRNA Uptake” value was found to be 1.38 and the “increase in siRNACy3 accumulation” value is “Approximately 2 fold”.

With `N[C@@H](Cc1ccc(O)c(O)c1)C(=O)O` [Levodopa], in the assay with Raw264.7 cells [1], the “Normalized Punctate Distribution” value amounted to 1.43 and the “Normalized siRNA Uptake” value amounted to 1.28.

Consider `CCCCC/C=C\C/C=C\CCCCCCCCOCC(CNCCCCNc1ccnc2cc(Cl)ccc12)OCCCCCCCC/C=C\C/C=C\CCCCC` (stereo not shown) [CQ-lipid], for which the “knockdown of GAPDH” value is “More pronounced knockdown effect” in assay [3] (LN containing 5% CQ-lipid, 72 hours); “Enhanced knockdown of GAPDH” in assay [3] (all concentrations of LN containing 5% CQ-lipid, 48 hours); “more pronounced” in assay [4] (72 hours). Further, in the assay with Raw264.7 cells [2] (setting [5]), the Cy5-siRNA punctate levels entry was “significant reduction”. Besides, the “intracellular DiO accumulation (LN uptake)” value with Raw264.7 cells [2] (5% CQ-lipid:35% DLinDMA LN, highest dose, versus 0% CQ-lipid:40% DLinDMA) is given as “substantially reduced intracellular DiO accumulation”. The siRNACy3 punctate signal entry in the assay on Raw264.7 cells [2] (40% DLinDMA LNs with 5% CQ-lipid, 24 hours) was “lowered punctate signal”. In the assay on Raw264.7 cells [2] (40% DLinDMA LNs with versus without 5% CQ-lipid, 24 hours), the “uptake of LN particles (SPDiO fluorescence)” value is “comparable intracellular SPDiO fluorescence”. The GAPDH protein expression entry in assay [4] (20 μg/mL GAPDH siRNA in LN containing 5% CQ-lipid, 48 hours) is reported as “decreased GAPDH protein expression”. Further, in assay [4] (20 μg/ml siRNA in LN containing the CQ-lipid), the “gene knockdown occurred earlier than with LN without CQ-lipid” value is 24 h. The GAPDH knockdown entry in assay [4] (24 hours) is “no knockdown”.

Consider `C[C@H]1O[C@@H](O[C@H]2CC[C@]3(C=O)[C@H]4CC[C@]5(C)[C@@H](C6=CC(=O)OC6)CC[C@]5(O)[C@@H]4CC[C@]3(O)C2)C[C@H](O)[C@@H]1O` [Helveticoside], for which the “LNP uptake with cardiac glycosides” value in the assay on HeLa cells is listed as “enhanced LNP uptake at a higher concentration”. Further, the “presence of LNs in cells by confocal microscopy” value in the assay with HeLa cells (treated for 24 hrs) is recorded as “substantial amount of LNs”. For the same molecule, in the assay on Na+/K+-ATPase, the “relative binding affinity among the 9 cardiac glycosides” value is reported as “weakest binder”.

With `Nc1nc(O)c2[nH]nnc2n1` [Azaguanine-8], in the assay with Raw264.7 cells [1], the “Normalized Punctate Distribution” value stood at 0.07 and the “Normalized siRNA Uptake” value came to 0.54.

As to `COc1cc(C(=O)NCc2ccc(OCCN(C)C)cc2)cc(OC)c1OC` [Trimethobenzamide HCl, Trimethobenzamide hydrochloride], in the assay with Raw264.7 cells [1], the “Normalized Punctate Distribution” value was 0.31, the “Normalized siRNA Uptake” value was 0.70 and the “punctate / cytosolic distribution” value was “increased punctate distribution of siRNACy3 with increasing drug concentration”.

On to `Cc1cc(NC(=O)C2=C(O)c3ccccc3S(=O)(=O)N2C)no1` [Isoxicam], for which, in the assay with Raw264.7 cells [1], the “Normalized Punctate Distribution” value turned out to be 1.53, the “Normalized siRNA Uptake” value was 1.42 and the “increase in siRNACy3 accumulation” value is on record as around 3 fold.
